Where “and” joins values, the source holds several entries; their conditions need not be identical. Equal entries are not always repeated. Where two headings read alike, the source gives them in different places.
Experiments:
[1] = system: halofuginone-induced P. falciparum (elevated proline homeostasis); test: P. falciparum ABS growth assay, SYBR Green, 72 h, halofuginone-induced parasites; assay type: cell-based, Plasmodium falciparum; details: Halofuginone-Induced (HFG-Induced)
Method in brief: (§1)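 Growth inhibition of the resistant and induced Dd2 lines is measured over 72 h in triplicate dose-response, starting at 1% parasitemia and 1% hematocrit. SYBR Green 1 staining gives the fluorescence readout, normalized between 10 μM dihydroartemisinin and no-compound wells.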

P. falciparum Dd2-2D4 = test: P. falciparum asexual blood stage (ABS) growth assay, SYBR Green, 72 h, wild-type parasites; assay type: cell-based, Plasmodium falciparum; details: for ABS growth dose-response, normalized signal (Replicates 1-3): Dd2-2D4
PfcProRS = target: T1, PfcProRS (Plasmodium falciparum, UniProt Q8I5R7); assay type: binding; details: for dose-response signal (normalized), SI Fig 8: single replicates
T1 construct: made in house; host or cells: E. coli SoluBL-21
T1 sequence (Q8I5R7 249-746): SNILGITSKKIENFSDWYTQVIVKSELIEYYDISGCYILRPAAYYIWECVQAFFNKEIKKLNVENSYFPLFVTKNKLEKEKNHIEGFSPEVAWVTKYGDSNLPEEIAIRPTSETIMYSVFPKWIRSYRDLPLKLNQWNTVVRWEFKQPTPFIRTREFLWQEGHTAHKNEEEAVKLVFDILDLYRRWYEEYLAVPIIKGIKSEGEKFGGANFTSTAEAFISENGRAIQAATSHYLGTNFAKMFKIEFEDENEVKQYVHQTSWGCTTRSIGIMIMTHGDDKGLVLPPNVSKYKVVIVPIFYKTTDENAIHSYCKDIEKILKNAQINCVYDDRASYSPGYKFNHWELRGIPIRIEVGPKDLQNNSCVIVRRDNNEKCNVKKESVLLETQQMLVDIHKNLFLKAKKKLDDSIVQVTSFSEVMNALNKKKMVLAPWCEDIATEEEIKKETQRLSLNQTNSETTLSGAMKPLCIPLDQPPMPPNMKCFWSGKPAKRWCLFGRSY

[2] = system: HFGR-I P. falciparum (elevated proline homeostasis and PfcProRS^L482H); test: P. falciparum ABS growth assay, SYBR Green, 72 h, HFGR-I parasites; assay type: cell-based, Plasmodium falciparum; details: HFGR-I
Method in brief: as §1

Structure (SMILES): CC(C)(C)OC(=O)NC1CCN(C(=O)Nc2nccnc2C(=O)NC2Cc3ccccc3C2)CC1 [compound 7]
- ABS growth dose-response, normalized signal (Replicates 1-3) ([1]; Log[inhibitor] (M) -5.000): 8 and 7 and 3
- ABS growth dose-response, normalized signal (Replicates 1-3) ([1]; Log[inhibitor] (M) -5.301): 22 and 9 and 15
- ABS growth dose-response, normalized signal (Replicates 1-3) ([1]; Log[inhibitor] (M) -5.602): 34 and 37 and 32
- ABS growth dose-response, normalized signal (Replicates 1-3) ([1]; Log[inhibitor] (M) -5.903): 93 and 89 and 84
- ABS growth dose-response, normalized signal (Replicates 1-3) ([1]; Log[inhibitor] (M) -6.204): 92 and 98 and 96
- ABS growth dose-response, normalized signal (Replicates 1-3) ([1]; Log[inhibitor] (M) -6.505): 98 and 96 and 105
- ABS growth dose-response, normalized signal (Replicates 1-3) ([1]; Log[inhibitor] (M) -6.806): 103 (2×) and 107
- ABS growth dose-response, normalized signal (Replicates 1-3) ([1]; Log[inhibitor] (M) -7.107): 109 (2×) and 104
- ABS growth dose-response, normalized signal (Replicates 1-3) ([1]; Log[inhibitor] (M) -7.408): 106 and 107 and 102
- ABS growth dose-response, normalized signal (Replicates 1-3) ([1]; Log[inhibitor] (M) -7.709): 107 and 106 and 101
- ABS growth dose-response, normalized signal (Replicates 1-3) ([1]; Log[inhibitor] (M) -8.010): 100 and 99 and 106
- ABS growth dose-response, normalized signal (Replicates 1-3) ([1]; Log[inhibitor] (M) -8.311): 109 and 100 and 99
- ABS growth dose-response, normalized signal (Replicates 1-3) (P. falciparum Dd2-2D4; Log[inhibitor] (M) -5.000): 1
- ABS growth dose-response, normalized signal (Replicates 1-3) (P. falciparum Dd2-2D4; Log[inhibitor] (M) -5.301): 1
- ABS growth dose-response, normalized signal (Replicates 1-3) (P. falciparum Dd2-2D4; Log[inhibitor] (M) -5.602): 1
- ABS growth dose-response, normalized signal (Replicates 1-3) (P. falciparum Dd2-2D4; Log[inhibitor] (M) -5.903): 1
- ABS growth dose-response, normalized signal (Replicates 1-3) (P. falciparum Dd2-2D4; Log[inhibitor] (M) -6.505): 1
- EC50 (P. falciparum Dd2-2D4; Plasmodium falciparum, DD2, SI Fig 16b, values on -log scale, read-out: ABS - Dd2-2D4 (converted)): 0.0906 µM
- dose-response signal (normalized), SI Fig 8 (PfcProRS; Log[inhibitor] (M) -5.000): 9.23E-03 and -2.50E-03 and -6.65E-02
- dose-response signal (normalized), SI Fig 8 (PfcProRS; Log[inhibitor] (M) -5.301): -5.43E-02 and 1.65E-02 and -1.76E-02
- dose-response signal (normalized), SI Fig 8 (PfcProRS; Log[inhibitor] (M) -5.601): 6.03E-02 and 2.26E-02 and 5.28E-02
- dose-response signal (normalized), SI Fig 8 (PfcProRS; Log[inhibitor] (M) -5.904): 2.65E-02 and 5.41E-02 and 9.36E-02
- dose-response signal (normalized), SI Fig 8 (PfcProRS; Log[inhibitor] (M) -6.208): 2.38E-02 and 1.39E-01 and 9.30E-02
- dose-response signal (normalized), SI Fig 8 (PfcProRS; Log[inhibitor] (M) -6.509): 2.08E-01 and 1.27E-01 and 1.08E-01
- dose-response signal (normalized), SI Fig 8 (PfcProRS; Log[inhibitor] (M) -6.796): 2.54E-01 and 2.41E-01 and 3.20E-01
- dose-response signal (normalized), SI Fig 8 (PfcProRS; Log[inhibitor] (M) -7.108): 4.18E-01 and 3.78E-01 and 4.14E-01
- dose-response signal (normalized), SI Fig 8 (PfcProRS; Log[inhibitor] (M) -7.409): 5.88E-01 and 6.84E-01 and 5.75E-01
- dose-response signal (normalized), SI Fig 8 (PfcProRS; Log[inhibitor] (M) -7.710): 7.68E-01 and 7.32E-01 and 7.90E-01
- dose-response signal (normalized), SI Fig 8 (PfcProRS; Log[inhibitor] (M) -8.000): 9.75E-01 and 1.04E+00 and 8.35E-01
- dose-response signal (normalized), SI Fig 8 (PfcProRS; Log[inhibitor] (M) -8.301): 9.24E-01 and 9.28E-01 and 8.42E-01
- dose-response signal (normalized), SI Fig 8 (PfcProRS; Log[inhibitor] (M) -8.602): 1.04E+00 and 8.85E-01 and 9.51E-01
- dose-response signal (normalized), SI Fig 8 (PfcProRS; Log[inhibitor] (M) -9.000): 1.00E+00 and 1.08E+00 and 9.49E-01
- dose-response signal (normalized), SI Fig 8 (PfcProRS; Log[inhibitor] (M) -9.301): 9.78E-01 and 9.98E-01 and 9.79E-01
- PfcProRS -- best Kd (PfcProRS; SI Fig 16a, values on -log scale): 7.883
- Kd (PfcProRS; read-out: PfcProRS (KD [nM]) + proline): 13.2 nM
- ABS growth dose-response, normalized signal (Replicates 1-3) ([2]; Log[inhibitor] (M) -5.000): 7 (2×) and 6
- ABS growth dose-response, normalized signal (Replicates 1-3) ([2]; Log[inhibitor] (M) -5.301): 18 and 21 and 24
- ABS growth dose-response, normalized signal (Replicates 1-3) ([2]; Log[inhibitor] (M) -5.602): 51 and 50 and 48
- ABS growth dose-response, normalized signal (Replicates 1-3) ([2]; Log[inhibitor] (M) -5.903): 103 and 100 and 102
